# Results as given in PMC2852430 (Biochemistry, 2010).
# Legend:
# [1] = system: bovine brain tubulin (BbTb); assay: Inhibition of paclitaxel-induced tubulin assembly; type: biochemical; conditions: read-out: IC50, inhibition of Taxol-induced assembly of BbTb; 2 μM tubulin
# [2] = system: bovine brain tubulin (BbTb); assay: Association kinetics of ligand binding to BbTb by fluorescence; conditions: 25°C, […] μM allocolchicine; for kf, apparent second order rate constant of the fast phase of biphasic binding to BbTb: 1 μM BbTb, 20 μM colchicinoid
# [3] = system: bovine brain tubulin (BbTb); assay: Equilibrium fluorescence titration of allocolchicine with BbTb; type: binding; conditions: 25°C
# [4] = system: cells containing human β1; conditions: cited from earlier work
# [5] = biological target: chicken erythrocyte tubulin (CeTb), ~95% βVI (Gallus gallus, UniProt P09207); assay: biochemical; type: biochemical
# Chain of chicken erythrocyte tubulin (CeTb), ~95% βVI (P09207 whole entry): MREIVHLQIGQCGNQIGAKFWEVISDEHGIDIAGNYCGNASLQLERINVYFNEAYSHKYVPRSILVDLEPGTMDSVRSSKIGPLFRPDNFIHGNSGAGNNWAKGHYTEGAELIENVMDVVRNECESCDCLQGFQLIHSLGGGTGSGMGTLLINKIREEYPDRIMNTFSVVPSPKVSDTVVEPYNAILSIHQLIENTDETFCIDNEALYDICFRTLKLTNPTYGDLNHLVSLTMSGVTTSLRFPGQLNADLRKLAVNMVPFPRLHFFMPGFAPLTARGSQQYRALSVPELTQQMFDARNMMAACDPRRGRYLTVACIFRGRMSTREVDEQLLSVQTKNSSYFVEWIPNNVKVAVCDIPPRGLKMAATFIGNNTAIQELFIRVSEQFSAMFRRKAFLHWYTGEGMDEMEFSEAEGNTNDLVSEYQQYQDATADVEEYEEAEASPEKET
# Chain of chicken erythrocyte tubulin (CeTb), ~95% βVI (P02552 whole entry partner): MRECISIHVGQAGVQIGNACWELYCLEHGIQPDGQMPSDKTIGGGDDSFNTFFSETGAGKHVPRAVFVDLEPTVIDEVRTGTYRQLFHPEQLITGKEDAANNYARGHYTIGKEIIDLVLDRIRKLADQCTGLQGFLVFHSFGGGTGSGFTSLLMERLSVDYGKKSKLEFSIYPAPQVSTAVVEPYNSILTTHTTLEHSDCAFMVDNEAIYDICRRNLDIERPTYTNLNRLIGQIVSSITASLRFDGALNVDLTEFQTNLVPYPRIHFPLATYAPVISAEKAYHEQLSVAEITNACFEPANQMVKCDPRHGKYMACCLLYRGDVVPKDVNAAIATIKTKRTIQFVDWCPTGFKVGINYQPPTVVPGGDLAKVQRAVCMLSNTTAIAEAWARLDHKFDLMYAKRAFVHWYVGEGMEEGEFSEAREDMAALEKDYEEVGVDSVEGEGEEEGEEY
structure (smiles),measurement,setting,value
"COC(=O)c1ccc2c(c1)[C@@H](NC(C)=O)CCc1cc(OC)c(OC)c(OC)c1-2 [Allocolchicine, allocolchicine]",IC50,[1],0.5 µM
same,"kf, apparent second order rate constant of the fast phase of biphasic binding to BbTb",[2],343 ± 7 M⁻¹ s⁻¹
same,Time for binding to BbTb to attain a plateau,[2]; 1 μM tubulin,≤ 600 s
same,"Ligand concentration at which fluorescence enhancement plateaus, BbTb",[3]; 1 μM BbTb,about 20 μM
same,Association constant (Ka) for BbTb,"[3]; 1 μM tubulin, 10% DMSO, single site isotherm",500000 M⁻¹
COc1cc2c(cc1O)CC[C@@H]1[C@@H]2CC[C@]2(C)[C@@H](O)CC[C@@H]12 [2-methoxyestradiol],Sensitivity of cells containing human β1 to ligand,[4],insensitive
"COc1cc([C@@H]2c3cc4c(cc3[C@H](O)[C@H]3COC(=O)[C@H]23)OCO4)cc(OC)c1OC [Podophyllotoxin, podophyllotoxin]",IC50,[5],25 ± 1 µM
same,IC50 for CeTb assembly relative to IC50 for BbTb,"[5]; 5 μM tubulin, same experimental conditions",about 15 fold
"COc1cc2c(c(OC)c1OC)-c1ccc(Cl)c(=O)cc1C(NC(C)=O)CC2 (stereo not drawn) [Chlorocolchicine, 10-demethoxy-10-chlorocolchicine]","kf, apparent second order rate constant of the fast phase of biphasic binding to BbTb",[2],367 ± 7 M⁻¹ s⁻¹
